Measured values as given in the NIST ThermoML archive (doi:10.1016/j.jct.2015.02.007).
± gives the expanded uncertainty stated by the source.

How the values were obtained:
[1] = 100 kPa, Liquid; for mass density: Vibrating tube method
[2] = xn = mol fraction of the nth substance listed; conditions: 100 kPa, Liquid, x2 = 0; for mass density: Vibrating tube method

mass density ([1]; 278.15 K) | mass density ([1]; 283.15 K) | speed of sound ([1]; 318.15 K, Pulse-echo method) | mass density ([1]; 323.15 K) | mass density ([1]; 328.15 K) | mass density ([1]; 333.15 K) | mass density ([2]; 278.15 K) | mass density ([2]; 283.15 K) | speed of sound ([2]; 318.15 K, Pulse-echo method) | mass density ([2]; 323.15 K) | mass density ([2]; 328.15 K) | mass density ([2]; 333.15 K) | SMILES
999.965 ± 0.11 kg/m3 | 999.698 ± 0.11 kg/m3 | 1536.7 ± 0.99 m/s | 988.027 ± 0.11 kg/m3 | 985.682 ± 0.11 kg/m3 | 983.186 ± 0.11 kg/m3 |  |  |  |  |  |  | O [water]
 |  |  |  |  |  | 999.965 ± 0.11 kg/m3 | 999.698 ± 0.11 kg/m3 | 1536.7 ± 0.99 m/s | 988.027 ± 0.11 kg/m3 | 985.682 ± 0.11 kg/m3 | 983.186 ± 0.11 kg/m3 | O [water] + OCCOCCOCCOCCO
